Measured values as given in ChEMBL document CHEMBL1201862, “PubChem BioAssay data set” (2004).
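Assay format: 96-well plates, 48-hour exposure. GI50 marks 50% less growth.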 The source made the active and inactive calls. Cut-off read from the data, not from the text of the source: active = GI50 up to about 1.1 µM and inactive = higher.

Key:
Test in all cases: DTP human tumour cell line panel, 48 h
BT-549 = system: BT-549
UACC-62 = system: UACC-62
SK-OV-3 = system: SK-OV-3
MCF7 = system: MCF7
A498 = system: A498
K562 = system: K562
M14 = system: M14
MOLT-4 = system: MOLT-4
MDA-MB-435 = system: MDA-MB-435
A549 = system: A549
MDA-MB-231 = system: MDA-MB-231
SK-MEL-5 = system: SK-MEL-5
EKVX = system: EKVX
LOX IMVI = system: LOX IMVI
NCI-H226 = system: NCI-H226
OVCAR-3 = system: OVCAR-3
SF-539 = system: SF-539
T47D = system: T47D
SNB-19 = system: SNB-19
IGROV-1 = system: IGROV-1

Measured: GI50

O=C1c2cc3c(cc2CC12Cc1cc4c(cc1C2=O)CCCC4)CCCC3
inactive: BT-549 56.4 µM | UACC-62 58.2 µM | SK-OV-3 70 µM | MCF7 > 100 µM | A498 > 100 µM | K562 78.5 µM | M14 65.2 µM | MOLT-4 > 100 µM | MDA-MB-435 > 100 µM | A549 59.2 µM | MDA-MB-231 22.1 µM | SK-MEL-5 46.5 µM | EKVX > 100 µM | LOX IMVI > 100 µM | NCI-H226 > 100 µM | OVCAR-3 23.7 µM | SF-539 52.2 µM | T47D 18.5 µM | SNB-19 33.8 µM | IGROV-1 71 µM

CCCCN(CCCC)C1(c2cc3ccccc3s2)CCCCC1.[O-][Cl+3]([O-])([O-])O
inactive: BT-549 19.9 µM | UACC-62 15.6 µM | SK-OV-3 20.4 µM | MCF7 17.3 µM | A498 19.3 µM | K562 16.7 µM | M14 14.6 µM | MOLT-4 13.6 µM | MDA-MB-435 13.3 µM | A549 18.2 µM | MDA-MB-231 15.9 µM | SK-MEL-5 18.7 µM | EKVX 21.1 µM | LOX IMVI 13.9 µM | NCI-H226 17.6 µM | OVCAR-3 15.7 µM | SF-539 19.1 µM | T47D 16.2 µM | SNB-19 18.7 µM | IGROV-1 15.5 µM
